Values joined by “and” are separate entries in the source; they are usually repeats but may differ in a detail not shown here. Equal values may be shown once.
Experiments:
U251 = experiment: NCI 60-cell line growth inhibition assay; assay type: cell-based; conditions: Homo sapiens, U-251
SK-MEL-28 = experiment: NCI 60-cell line growth inhibition assay; assay type: cell-based; conditions: Homo sapiens
A498 = experiment: NCI 60-cell line growth inhibition assay; assay type: cell-based; conditions: Homo sapiens
K-562 = experiment: NCI 60-cell line growth inhibition assay; assay type: cell-based; conditions: Homo sapiens, K562
UACC-257 = experiment: NCI 60-cell line growth inhibition assay; assay type: cell-based; conditions: Homo sapiens
HT29 = experiment: NCI 60-cell line growth inhibition assay; assay type: cell-based; conditions: Homo sapiens, HT-29
HOP-92 = experiment: NCI 60-cell line growth inhibition assay; assay type: cell-based; conditions: Homo sapiens
CyclinA/cdk2 = CyclinA/cdk2 (Homo sapiens, UniProt P24941); experiment: CyclinA/cdk2 protein kinase assay (histone H1 phosphorylation); conditions: IC50 CyclinA/cdk2, complex immunopurified from HeLa cells; 15 μM ATP; replicate experiments
NCI-H226 = experiment: NCI 60-cell line growth inhibition assay; assay type: cell-based; conditions: Homo sapiens
A549/ATCC = experiment: NCI 60-cell line growth inhibition assay; assay type: cell-based; conditions: Homo sapiens
M14 = experiment: NCI 60-cell line growth inhibition assay; assay type: cell-based; conditions: Homo sapiens
LOX IMVI = experiment: NCI 60-cell line growth inhibition assay; assay type: cell-based; conditions: Homo sapiens
OVCAR-3 = experiment: NCI 60-cell line growth inhibition assay; assay type: cell-based; conditions: Homo sapiens
SF-539 = experiment: NCI 60-cell line growth inhibition assay; assay type: cell-based; conditions: Homo sapiens
[1] = MTD (NCI in vivo evaluation, Table 8); conditions: mouse
OVCAR-4 = experiment: NCI 60-cell line growth inhibition assay; assay type: cell-based; conditions: Homo sapiens
HCC-2998 = experiment: NCI 60-cell line growth inhibition assay; assay type: cell-based; conditions: Homo sapiens
CyclinB/cdk1 = target: T1, CyclinB/cdk1 (Homo sapiens, UniProt P06493); experiment: CyclinB/cdk1 protein kinase assay (histone H1 phosphorylation); assay type: biochemical; conditions: complex immunopurified from HeLa cells; 15 μM ATP; replicate experiments
T1 construct: Monoclonal antibody against cyclinB (GNS1) is added to the supernatant; endogenous in cells
Procedure: HeLa cells are blocked at the G1/S border by culturing in the presence of 2 mM thymidine for 20 h. The cells are then rinsed 3×in phosphate buffered saline and resuspended in regular medium. After 4 h of culture, the mitotic blocker, nocodazole is added to a final concentration of 75 ng/ml. […] The lysate is then clarified by centrifugation at 10,000×g for 10 min. The supernatant is collected and diluted 1:5 with Lysis Buffer. Monoclonal antibody against cyclinB (GNS1) is added to the supernatant to a final concentration of 5 μg/ml and shaken at 4° C. for 2 h. The immune complexes are then collected by the addition of 200 μl of protein agarose beads for 1 h. The beads are washed 4×in lysis buffer and 1×in kinase assay buffer.
Duplicate assays were performed at each concentration.

MDA-MB-231/ATCC = experiment: NCI 60-cell line growth inhibition assay; assay type: cell-based; conditions: Homo sapiens
SR = experiment: NCI 60-cell line growth inhibition assay; assay type: cell-based; conditions: Homo sapiens
HCT-116 = experiment: NCI 60-cell line growth inhibition assay; assay type: cell-based; conditions: Homo sapiens
786-0 = experiment: NCI 60-cell line growth inhibition assay; assay type: cell-based; conditions: Homo sapiens
SW-620 = experiment: NCI 60-cell line growth inhibition assay; assay type: cell-based; conditions: Homo sapiens
HeLa S-3 cells = experiment: Inhibition of cell growth of HeLa cells (SRB); assay type: cell-based, human; conditions: 2 days of treatment, replicate experiments
CyclinE/cdk2 = CyclinE/cdk2 (Homo sapiens, UniProt P24941); experiment: CyclinE/cdk2 protein kinase assay (histone H1 phosphorylation); conditions: IC50 CyclinE/cdk2, complex immunopurified from HeLa cells; 15 μM ATP; replicate experiments
[2] = tested on: 60-human transformed cell lines; experiment: NCI 60-cell line growth inhibition assay (whole panel); assay type: cell-based; conditions: range over 60 cell lines
[3] = A549/ATCC (Non-Small Cell Lung)

T1 sequence (P06493 whole entry): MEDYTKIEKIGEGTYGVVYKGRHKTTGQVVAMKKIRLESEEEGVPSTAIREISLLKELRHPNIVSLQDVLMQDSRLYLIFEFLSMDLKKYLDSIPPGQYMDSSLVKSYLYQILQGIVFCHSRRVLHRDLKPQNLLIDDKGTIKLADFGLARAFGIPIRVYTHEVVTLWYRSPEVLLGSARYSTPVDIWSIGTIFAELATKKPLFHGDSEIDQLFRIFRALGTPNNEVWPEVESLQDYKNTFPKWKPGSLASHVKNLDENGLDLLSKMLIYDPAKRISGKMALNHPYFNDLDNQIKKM
T1 sequence (P14635 whole entry partner): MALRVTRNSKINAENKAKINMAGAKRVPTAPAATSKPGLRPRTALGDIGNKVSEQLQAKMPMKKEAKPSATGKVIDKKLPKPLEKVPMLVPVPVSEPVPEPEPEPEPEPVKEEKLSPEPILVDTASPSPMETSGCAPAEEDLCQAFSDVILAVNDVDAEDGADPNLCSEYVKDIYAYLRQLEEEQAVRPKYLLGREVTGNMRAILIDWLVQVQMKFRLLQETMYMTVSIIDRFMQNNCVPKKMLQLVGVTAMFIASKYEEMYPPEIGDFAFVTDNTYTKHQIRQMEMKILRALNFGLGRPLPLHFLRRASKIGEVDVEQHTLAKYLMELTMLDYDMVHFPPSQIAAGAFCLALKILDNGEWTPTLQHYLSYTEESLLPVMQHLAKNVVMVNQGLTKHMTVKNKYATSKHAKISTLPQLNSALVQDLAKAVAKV

| SMILES | GI50 (U251; U251 (CNS)) | GI50 (SK-MEL-28; SK-MEL-28 (Melanoma)) | GI50 (A498; A498 (Renal)) | GI50 (K-562; K-562 (Leukemia)) | GI50 (UACC-257; UACC-257 (Melanoma)) | GI50 (HT29; HT29 (Colon)) | GI50 (HOP-92; HOP-92 (Non-Small Cell Lung)) | IC50 (CyclinA/cdk2) | GI50 (A549/ATCC; [3]) | GI50 (M14; M14 (Melanoma)) | GI50 (LOX IMVI; LOX IMVI (Melanoma)) | GI50 (OVCAR-3; OVCAR-3 (Ovarian)) | GI50 (SF-539; SF-539 (CNS)) | GI50 (OVCAR-4; OVCAR-4 (Ovarian)) | GI50 (HCC-2998; HCC-2998 (Colon)) | GI50 (MDA-MB-231/ATCC; MDA-MB-231/ATCC (Breast)) | GI50 (SR; SR (Leukemia)) | GI50 (HCT-116; HCT-116 (Colon)) | GI50 (786-0; 786-0 (Renal)) | GI50 (SW-620; SW-620 (Colon)) | also measured |
| --- | --- | --- | --- | --- | --- | --- | --- | --- | --- | --- | --- | --- | --- | --- | --- | --- | --- | --- | --- | --- | --- |
| CC(C)n1cnc2c(NCc3ccc(-c4ccsc4)cc3)nc(N[C@H]3CC[C@H](N)CC3)nc21 [Compound 12] | 0.0078 µM | 0.01 µM | 0.016 µM | < 0.005 µM | 0.008 µM | < 0.005 µM | 0.011 µM | 2 µM and 0.7 µM and 0.9 µM and 0.2 µM | < 0.005 µM | < 0.005 µM | < 0.005 µM | 0.012 µM | 0.022 µM | < 0.005 µM | < 0.005 µM | < 0.005 µM | < 0.005 µM | 0.0089 µM | 0.0065 µM | < 0.005 µM | GI50 (NCI-H226; NCI-H226 (Non-Small Cell Lung)): 0.021 µM; MTD [1]: 3.1 mg/kg; IC50 (CyclinB/cdk1): 3 µM |
| CC[C@H](CO)Nc1nc(NCc2ccc(-c3ccccn3)cc2)c2ncn(C(C)C)c2n1 [Compound 17] |  |  |  |  |  |  |  |  |  |  |  |  |  |  |  |  |  |  |  |  | GI50 (U251; CNS, U251): 0.4 µM; GI50 (SK-MEL-28; Melanoma, SK-MEL-28): 0.12 µM; GI50 (A498; Renal, A498): 1.58 µM; GI50 (K-562; Leukemia, K-562): 0.16 µM; GI50 (UACC-257; Melanoma, UACC-257): 0.2 µM; GI50 (HT29; Colon, HT29): 0.1 µM; GI50 (HOP-92; Non-Small Cell Lung, HOP-92): 1.58 µM; GI50 (NCI-H226; Non-Small Cell Lung, NCI-H226): 0.11 µM; GI50 (A549/ATCC; Non-Small Cell Lung, A549/ATCC): 0.03 µM; GI50 (M14; Melanoma, M14): 0.03 µM; GI50 (LOX IMVI; Melanoma, LOX IMVI): 0.32 µM; GI50 (OVCAR-3; Ovarian, OVCAR-3): 0.65 µM; GI50 (SF-539; CNS, SF-539): 0.4 µM; MTD [1]: 100 mg/kg; GI50 (OVCAR-4; Ovarian, OVCAR-4): 0.32 µM; GI50 (HCC-2998; Colon, HCC-2998): 0.03 µM; GI50 (SR; Leukemia, SR): 0.5 µM; GI50 (HCT-116; Colon, HCT-116): 0.16 µM; GI50 (786-0; Renal, 786-0): 0.25 µM; GI50 (SW-620; Colon, SW-620): 0.01 µM |
| CC[C@H](CO)Nc1nc(NCc2ccc(-c3ccc(OC)cc3)cc2)c2ncn(C(C)C)c2n1 [Compound 43] | 2.3 µM | 2.3 µM | 3 µM | 3.1 µM | 4.8 µM | 3.6 µM | 2.6 µM |  | 4.1 µM | 2.2 µM | 3.4 µM | 9.3 µM | 3.4 µM | 8.9 µM | 3.4 µM | 3.2 µM | 2.2 µM | 2.1 µM | 3.1 µM | 1.6 µM | GI50 (HeLa S-3 cells; Homo sapiens, HeLa S3, 48 h): 4 µM |
| CC[C@H](CO)Nc1nc(NCc2ccc(-c3cccc([N+](=O)[O-])c3)cc2)c2ncn(C(C)C)c2n1 [Compound 48] | 0.17 µM | < 0.01 µM | 0.39 µM | 0.16 µM | 0.04 µM | < 0.01 µM | 0.46 µM | 22 µM and 6 µM | < 0.01 µM | < 0.01 µM | 0.19 µM | 0.17 µM | 0.38 µM | 0.2 µM |  | 0.09 µM | 0.16 µM | 0.19 µM | 0.25 µM | < 0.01 µM | IC50 (CyclinE/cdk2): 1 µM and 5 µM; GI50 (HeLa S-3 cells): 0.6 µM and 0.5 µM; GI50 (HeLa S-3 cells; Homo sapiens, HeLa S3, 48 h): 0.3 µM |
| CC[C@H](CO)Nc1nc(NCc2ccc(-c3ccccc3)cc2)c2ncn(C(C)C)c2n1 [Compound 73] |  |  |  |  |  |  |  |  |  |  |  |  |  |  |  |  |  |  |  |  | GI50 (U251; CNS, U251): 0.32 µM; GI50 (SK-MEL-28; Melanoma, SK-MEL-28): 0.45 µM; GI50 (A498; Renal, A498): 2.88 µM; GI50 (K-562; Leukemia, K-562): 0.16 µM; GI50 (UACC-257; Melanoma, UACC-257): 0.16 µM; GI50 (HOP-92; Non-Small Cell Lung, HOP-92): 1 µM; GI50 (NCI-H226; Non-Small Cell Lung, NCI-H226): 0.22 µM; GI50 (A549/ATCC; Non-Small Cell Lung, A549/ATCC): 0.03 µM; GI50 (M14; Melanoma, M14): 0.03 µM; GI50 (OVCAR-3; Ovarian, OVCAR-3): 0.3 µM; GI50 (SF-539; CNS, SF-539): 0.76 µM; MTD [1]: 100 mg/kg; GI50 (OVCAR-4; Ovarian, OVCAR-4): 0.32 µM; GI50 (HCC-2998; Colon, HCC-2998): 0.2 µM; GI50 (MDA-MB-231/ATCC; Breast, MDA-MB-231/ATCC): 0.5 µM; GI50 (HCT-116; Colon, HCT-116): 0.2 µM; GI50 (786-0; Renal, 786-0): 0.2 µM; GI50 (HeLa S-3 cells; Homo sapiens, HeLa S3, 48 h): 0.3 µM |
| CC(C)n1cnc2c(NCc3ccc(-c4ccccn4)cc3)nc(N[C@H]3CC[C@H](N)CC3)nc21 [Compound 78] | 0.02 µM | 0.01 µM | 0.03 µM | 0.02 µM | 0.02 µM | < 0.01 µM |  | 0.9 µM and 0.7 µM | < 0.01 µM | < 0.01 µM |  | 0.03 µM |  | 0.02 µM | < 0.01 µM | < 0.01 µM |  | 0.03 µM | 0.04 µM | < 0.01 µM | GI50 (NCI-H226; NCI-H226 (Non-Small Cell Lung)): 0.02 µM; IC50 (CyclinE/cdk2): 0.6 µM and 0.3 µM and 0.2 µM; MTD [1]: 6.3 mg/kg; IC50 (CyclinB/cdk1): 0.8 µM |
| CC(=O)N[C@H]1CC[C@H](Nc2nc(NCc3ccc(-c4ccccn4)cc3)c3ncn(C(C)C)c3n2)CC1 [Compound 79] | < 0.01 µM | < 0.01 µM | < 0.01 µM | < 0.01 µM | < 0.01 µM | < 0.01 µM | < 0.01 µM | 0.5 µM and 1 µM | < 0.01 µM | < 0.01 µM | < 0.01 µM | < 0.01 µM | < 0.01 µM | < 0.01 µM | < 0.01 µM | < 0.01 µM | < 0.01 µM | < 0.01 µM | < 0.01 µM | < 0.01 µM | GI50 (NCI-H226; NCI-H226 (Non-Small Cell Lung)): < 0.01 µM; MTD [1]: 6.3 mg/kg; IC50 (CyclinB/cdk1): 3 µM |
| CC(=O)N[C@H]1CC[C@H](Nc2nc(NCc3ccc(-c4ccccc4)nc3)c3ncn(C(C)C)c3n2)CC1 [Compound 87] | 0.028 µM | < 0.01 µM | 0.1 µM | 0.024 µM |  | < 0.01 µM | 0.088 µM | 4 µM and 2 µM and 0.5 µM | < 0.01 µM | < 0.01 µM | 0.027 µM | 0.05 µM | 0.081 µM | 0.048 µM | < 0.01 µM | < 0.01 µM | 0.032 µM | 0.037 µM | 0.047 µM | < 0.01 µM | IC50 (CyclinE/cdk2): 1 µM and 0.3 µM and 0.1 µM; IC50 (CyclinB/cdk1): 5 µM; GI50 (HeLa S-3 cells): 0.006 µM |
| Cn1cnc2c(NCc3ccccc3)nc(NCCO)nc21 [Olomoucine, reference compound] | 50 µM | 50 µM | 32 µM | 100 µM | 79 µM | 63 µM | 50 µM |  | 50 µM | 100 µM | 32 µM | 79 µM | 32 µM | 100 µM | 63 µM | 100 µM | 25 µM | 40 µM | 63 µM | 40 µM | GI50 (NCI-H226; NCI-H226 (Non-Small Cell Lung)): 50 µM; GI50 [2]: 20 to 100 µM; GI50 (HeLa S-3 cells; Homo sapiens, HeLa S3, 48 h): 75 µM |
